In paper PMC5218480 (PLoS ONE, 2017):

Test system: MV-4-11 cells
Test: Gene expression microarray analysis (Affymetrix PrimeView) and GSEA
Assay type: cell-based, human
Parameters: RFU PODN (11730768_x_at) / Fold change /veh PODN (11730768_x_at) / RFU LINC00158 (11744669_a_at) / Fold change /veh LINC00158 (11744669_a_at) / RFU DUSP10 (11751237_a_at) / Fold change /veh DUSP10 (11751237_a_at) / RFU ID3 (11757404_x_at) / Fold change /veh ID3 (11757404_x_at) / RFU PLEKHG5 (11737974_s_at) / Fold change /veh PLEKHG5 (11737974_s_at) / RFU LRRC4B (11730491_at) / Fold change /veh LRRC4B (11730491_at) / RFU GIMAP4 (11747438_a_at) / Fold change /veh GIMAP4 (11747438_a_at) / RFU KRT8 (11758183_x_at) / Fold change /veh KRT8 (11758183_x_at) / RFU CNN1 (11734310_a_at) / Fold change /veh CNN1 (11734310_a_at) / RFU VPS37D (11726825_at) / Fold change /veh VPS37D (11726825_at) / RFU C10orf10 (11716522_x_at) / Fold change /veh C10orf10 (11716522_x_at) / RFU KIR2DL2 /// KIR2DL4 /// KIR2DL5A /// KIR2DL5B /// KIR2DS1 /// KIR2DS2 /// KIR2DS3 /// KIR2DS4 /// KIR3DL3 /// KIR3DL3 /// KIR3DS1 (11738374_at) / Fold change /veh KIR2DL2 /// KIR2DL4 /// KIR2DL5A /// KIR2DL5B /// KIR2DS1 /// KIR2DS2 /// KIR2DS3 /// KIR2DS4 /// KIR3DL3 /// KIR3DL3 /// KIR3DS1 (11738374_at) / RFU C1QL1 (11718748_at) / Fold change /veh C1QL1 (11718748_at) / RFU TMPRSS4 (11747572_a_at) / Fold change /veh TMPRSS4 (11747572_a_at) / RFU HAMP (11756126_x_at) / Fold change /veh HAMP (11756126_x_at) / RFU RNFT2 (11725882_a_at) / Fold change /veh RNFT2 (11725882_a_at) / RFU NR4A2 (11747474_a_at) / Fold change /veh NR4A2 (11747474_a_at) / RFU ABCC12 (11746883_a_at) / Fold change /veh ABCC12 (11746883_a_at) / RFU TMEM136 (11760407_x_at) / Fold change /veh TMEM136 (11760407_x_at) / RFU CLDN22 /// WWC2 (11732394_at) / Fold change /veh CLDN22 /// WWC2 (11732394_at) / RFU HLA-DPB1 (11760878_x_at) / Fold change /veh HLA-DPB1 (11760878_x_at) / RFU SPINT1 (11716480_a_at) / Fold change /veh SPINT1 (11716480_a_at) / RFU GAP43 (11754022_s_at) / Fold change /veh GAP43 (11754022_s_at) / RFU A4GNT (11735810_at) / Fold change /veh A4GNT (11735810_at) / RFU PRB3 (11715151_x_at) / Fold change /veh PRB3 (11715151_x_at) / RFU TUBB4B (11761932_at) / Fold change /veh TUBB4B (11761932_at) / RFU CAPN14 (11732068_a_at) / Fold change /veh CAPN14 (11732068_a_at) / RFU TMCC2 (11721928_a_at) / Fold change /veh TMCC2 (11721928_a_at) / RFU IRGQ (11745062_a_at) / Fold change /veh IRGQ (11745062_a_at) / RFU FAM174B (11720279_a_at) / Fold change /veh FAM174B (11720279_a_at) / RFU TMPRSS4 (11748680_a_at) / Fold change /veh TMPRSS4 (11748680_a_at) / RFU FAM212B (11763350_a_at) / Fold change /veh FAM212B (11763350_a_at) / RFU PLEKHG5 (11743358_a_at) / Fold change /veh PLEKHG5 (11743358_a_at) / RFU ZSCAN30 (11745921_a_at) / Fold change /veh ZSCAN30 (11745921_a_at) / RFU CMKLR1 (11741424_a_at) / Fold change /veh CMKLR1 (11741424_a_at) / RFU LOC101060620 /// MAPK8IP1 (11723275_at) / Fold change /veh LOC101060620 /// MAPK8IP1 (11723275_at) / RFU SPTSSB (11747773_x_at) / Fold change /veh SPTSSB (11747773_x_at) / RFU PRSS12 (11739890_at) / Fold change /veh PRSS12 (11739890_at) / RFU BIN1 (11741810_x_at) / Fold change /veh BIN1 (11741810_x_at) / RFU WNT11 (11732464_a_at) / Fold change /veh WNT11 (11732464_a_at) / RFU C10orf10 (11716521_a_at) / Fold change /veh C10orf10 (11716521_a_at) / RFU C5orf56 (11738089_at) / Fold change /veh C5orf56 (11738089_at) / RFU CYB561 (11721691_x_at) / Fold change /veh CYB561 (11721691_x_at) / RFU ANKRD19P (11752326_a_at) / Fold change /veh ANKRD19P (11752326_a_at) / RFU OR2T12 /// OR2T33 /// OR2T8 (11738714_s_at) / Fold change /veh OR2T12 /// OR2T33 /// OR2T8 (11738714_s_at) / RFU VCAN (11748164_a_at) / Fold change /veh VCAN (11748164_a_at) / RFU JSRP1 (11732532_at) / Fold change /veh JSRP1 (11732532_at) / RFU KRTAP10-11 (11738290_x_at) / Fold change /veh KRTAP10-11 (11738290_x_at) / RFU MYO3A (11730013_a_at) / Fold change /veh MYO3A (11730013_a_at) / RFU EBF3 (11725865_a_at) / Fold change /veh EBF3 (11725865_a_at) / RFU CAMK2N1 (11719241_x_at) / Fold change /veh CAMK2N1 (11719241_x_at) / RFU C5orf56 (11738088_a_at) / Fold change /veh C5orf56 (11738088_a_at) / RFU OLFML3 (11715873_a_at) / Fold change /veh OLFML3 (11715873_a_at) / RFU LOC100653217 /// NTM (11731650_a_at) / Fold change /veh LOC100653217 /// NTM (11731650_a_at) / RFU MAPK11 (11762145_a_at) / Fold change /veh MAPK11 (11762145_a_at) / RFU FIZ1 (11724087_x_at) / Fold change /veh FIZ1 (11724087_x_at) / RFU OASL (11726364_x_at) / Fold change /veh OASL (11726364_x_at) / RFU SOX15 (11748057_x_at) / Fold change /veh SOX15 (11748057_x_at) / RFU CD79A (11719716_a_at) / Fold change /veh CD79A (11719716_a_at) / RFU HIST1H1D (11736915_at) / Fold change /veh HIST1H1D (11736915_at) / RFU CASKIN2 (11723855_a_at) / Fold change /veh CASKIN2 (11723855_a_at) / RFU LOC730098 (11760151_x_at) / Fold change /veh LOC730098 (11760151_x_at) / RFU OR4N2 (11742367_at) / Fold change /veh OR4N2 (11742367_at) / RFU PRRT2 (11749266_a_at) / Fold change /veh PRRT2 (11749266_a_at) / RFU SNX32 (11753110_a_at) / Fold change /veh SNX32 (11753110_a_at) / RFU CDHR5 (11726645_a_at) / Fold change /veh CDHR5 (11726645_a_at) / RFU RCAN1 (11760418_a_at) / Fold change /veh RCAN1 (11760418_a_at) / RFU FAM167A (11723789_a_at) / Fold change /veh FAM167A (11723789_a_at) / RFU FAM26E (11764081_at) / Fold change /veh FAM26E (11764081_at) / RFU ISYNA1 (11749810_s_at) / Fold change /veh ISYNA1 (11749810_s_at) / RFU ACY1 (11761880_at) / Fold change /veh ACY1 (11761880_at) / RFU 11764098_at / Fold change /veh 11764098_at / RFU SAMD14 (11745864_x_at) / Fold change /veh SAMD14 (11745864_x_at) / RFU NPB (11741838_a_at) / Fold change /veh NPB (11741838_a_at) / RFU TMPRSS6 (11731388_a_at) / Fold change /veh TMPRSS6 (11731388_a_at) / RFU KRTAP10-2 (11738614_at) / Fold change /veh KRTAP10-2 (11738614_at) / RFU ARHGAP8 /// PRR5-ARHGAP8 (11727945_x_at) / Fold change /veh ARHGAP8 /// PRR5-ARHGAP8 (11727945_x_at) / RFU KRTAP5-7 /// NADSYN1 (11734609_at) / Fold change /veh KRTAP5-7 /// NADSYN1 (11734609_at) / RFU RASL12 (11751679_a_at) / Fold change /veh RASL12 (11751679_a_at) / RFU CDKN2B (11736163_a_at) / Fold change /veh CDKN2B (11736163_a_at) / RFU PRF1 (11729649_at) / Fold change /veh PRF1 (11729649_at) / RFU, ZNF638 /// ZNF638-IT1 / Fold change vs veh, ZNF638 /// ZNF638-IT1 / RFU, PANK3 / Fold change vs veh, PANK3 / RFU, SH3YL1 / Fold change vs veh, SH3YL1 / RFU, ZEB2 / Fold change vs veh, ZEB2 / RFU, NRIP1 / Fold change vs veh, NRIP1 / RFU, PTTG1IP / Fold change vs veh, PTTG1IP / RFU, CAPN2 / Fold change vs veh, CAPN2 / RFU, MED14 / Fold change vs veh, MED14 / RFU, SNORA58 / Fold change vs veh, SNORA58 / RFU, C1orf63 / Fold change vs veh, C1orf63 / RFU, LRRFIP1 / Fold change vs veh, LRRFIP1 / RFU, NDUFAF7 / Fold change vs veh, NDUFAF7 / RFU, SLC12A2 / Fold change vs veh, SLC12A2 / RFU, IBTK / Fold change vs veh, IBTK / RFU, ESF1 / Fold change vs veh, ESF1 / Fold change vs veh, TMEM50B / RFU, TAOK1 / Fold change vs veh, TAOK1 / RFU, ACBD3 / Fold change vs veh, ACBD3 / RFU, TMA16 / Fold change vs veh, TMA16 / RFU, RWDD3 / Fold change vs veh, RWDD3 / RFU, BCAT1 / Fold change vs veh, BCAT1 / RFU, EDEM3 / Fold change vs veh, EDEM3 / RFU, TMEM33 / Fold change vs veh, TMEM33 / RFU, WDR75 / Fold change vs veh, WDR75 / RFU, AHCTF1 / Fold change vs veh, AHCTF1 / RFU, TFRC / Fold change vs veh, TFRC / RFU, ZDHHC17 / Fold change vs veh, ZDHHC17 / RFU, NOM1 / Fold change vs veh, NOM1 / RFU, ARL8B / Fold change vs veh, ARL8B / RFU, ZBTB11 / Fold change vs veh, ZBTB11 / RFU, TAMM41 / Fold change vs veh, TAMM41 / RFU, KIAA1704 /// LOC100996395 / Fold change vs veh, KIAA1704 /// LOC100996395 / RFU, ING1 / Fold change vs veh, ING1 / RFU, TRMT61B / Fold change vs veh, TRMT61B / RFU, FUBP3 / Fold change vs veh, FUBP3 / RFU, TP53 / Fold change vs veh, TP53 / RFU, TNKS2 / Fold change vs veh, TNKS2 / RFU, ZFP14 / Fold change vs veh, ZFP14 / RFU, ACTR2 / Fold change vs veh, ACTR2 / RFU, PPP3R1 / Fold change vs veh, PPP3R1 / RFU, PIK3R1 / Fold change vs veh, PIK3R1 / RFU, HNRNPA1 / Fold change vs veh, HNRNPA1 / RFU, RNF170 / Fold change vs veh, RNF170 / RFU, ZNF28 / Fold change vs veh, ZNF28 / RFU, RNGTT / Fold change vs veh, RNGTT / RFU, OGT / Fold change vs veh, OGT / RFU, BRD1 / Fold change vs veh, BRD1 / RFU, MARS / Fold change vs veh, MARS / RFU, ZNF655 / Fold change vs veh, ZNF655 / RFU, FAHD1 / Fold change vs veh, FAHD1 / RFU, BDP1 / Fold change vs veh, BDP1 / RFU, LRRCC1 / Fold change vs veh, LRRCC1 / RFU, ARID1A / Fold change vs veh, ARID1A / RFU, ZNF146 / Fold change vs veh, ZNF146 / RFU, ZNF330 / Fold change vs veh, ZNF330 / RFU, GPN3 / Fold change vs veh, GPN3 / RFU, C9orf123 / Fold change vs veh, C9orf123 / RFU, N4BP2L2 / Fold change vs veh, N4BP2L2 / RFU, ARFIP1 / Fold change vs veh, ARFIP1 / RFU, FAM179B / Fold change vs veh, FAM179B / RFU, BCL10 / Fold change vs veh, BCL10 / RFU, UHRF1BP1L / Fold change vs veh, UHRF1BP1L / RFU, BET1 / Fold change vs veh, BET1 / RFU, CNOT2 / Fold change vs veh, CNOT2 / RFU, ZNF268 / Fold change vs veh, ZNF268 / Fold change vs veh, ZNF507 / RFU, DGCR2 / Fold change vs veh, DGCR2 / RFU, WDSUB1 / Fold change vs veh, WDSUB1 / Fold change vs veh, HSP90B1 /// MIR3652 / RFU, ADSS / Fold change vs veh, ADSS / RFU, GK / Fold change vs veh, GK / RFU, ZNF148 / Fold change vs veh, ZNF148 / RFU, TAF9 / Fold change vs veh, TAF9 / RFU, SLC1A5 / Fold change vs veh, SLC1A5 / RFU, SLMO2 / Fold change vs veh, SLMO2 / RFU, ABCC4 / Fold change vs veh, ABCC4 / RFU, LOC101060439 /// RAP1B / Fold change vs veh, LOC101060439 /// RAP1B / RFU, RFX7 / Fold change vs veh, RFX7 / RFU, GTPBP10 / Fold change vs veh, GTPBP10 / RFU, CNEP1R1 / Fold change vs veh, CNEP1R1 / RFU, BIVM-ERCC5 /// ERCC5 / Fold change vs veh, BIVM-ERCC5 /// ERCC5 / RFU, ILF3 / Fold change vs veh, ILF3 / RFU 11762660_at / Fold change /veh 11762660_at / RFU VCAN (11757783_s_at) / Fold change /veh VCAN (11757783_s_at) / RFU DDX43 (11728927_at) / Fold change /veh DDX43 (11728927_at) / RFU KRT8 (11758188_x_at) / Fold change /veh KRT8 (11758188_x_at) / RFU NKD1 (11759106_at) / Fold change /veh NKD1 (11759106_at) / RFU SRD5A1 (11742802_a_at) / Fold change /veh SRD5A1 (11742802_a_at) / RFU TPSAB1 /// TPSB2 (11721975_s_at) / Fold change /veh TPSAB1 /// TPSB2 (11721975_s_at) / RFU GSTM3 (11746129_a_at) / Fold change /veh GSTM3 (11746129_a_at) / RFU IL23R (11737362_x_at) / Fold change /veh IL23R (11737362_x_at) / RFU TMEM51 (11727254_a_at) / Fold change /veh TMEM51 (11727254_a_at) / RFU PIWIL2 (11732686_x_at) / Fold change /veh PIWIL2 (11732686_x_at) / RFU ORM1 (11744905_x_at) / Fold change /veh ORM1 (11744905_x_at) / RFU CCDC152 (11743942_at) / Fold change /veh CCDC152 (11743942_at) / RFU ECM1 (11717891_a_at) / Fold change /veh ECM1 (11717891_a_at) / RFU IL23R (11748794_a_at) / Fold change /veh IL23R (11748794_a_at) / RFU TNFAIP8L3 (11732012_x_at) / Fold change /veh TNFAIP8L3 (11732012_x_at) / RFU MBOAT4 (11741988_at) / Fold change /veh MBOAT4 (11741988_at) / RFU 11764193_at / Fold change /veh 11764193_at / RFU TMEM53 (11763286_at) / Fold change /veh TMEM53 (11763286_at) / RFU MAGEB2 (11727129_at) / Fold change /veh MAGEB2 (11727129_at) / RFU TMEM200A (11744735_a_at) / Fold change /veh TMEM200A (11744735_a_at) / RFU CCDC152 (11751479_a_at) / Fold change /veh CCDC152 (11751479_a_at) / RFU FAM211A (11726209_a_at) / Fold change /veh FAM211A (11726209_a_at) / RFU RGS16 (11746705_a_at) / Fold change /veh RGS16 (11746705_a_at) / RFU VCAN (11755009_s_at) / Fold change /veh VCAN (11755009_s_at) / RFU RHOB (11743442_s_at) / Fold change /veh RHOB (11743442_s_at) / RFU RGS16 (11720943_a_at) / Fold change /veh RGS16 (11720943_a_at) / RFU RGS16 (11720944_at) / Fold change /veh RGS16 (11720944_at) / RFU, VPS4B / Fold change vs veh, VPS4B / RFU, CREB1 / Fold change vs veh, CREB1 / RFU, DNAJC13 / Fold change vs veh, DNAJC13 / RFU, GNAQ / Fold change vs veh, GNAQ / RFU, CDK5R1 / Fold change vs veh, CDK5R1 / RFU, ZRANB3 / Fold change vs veh, ZRANB3 / RFU, CUL4A / Fold change vs veh, CUL4A / RFU, CCNY / Fold change vs veh, CCNY / RFU, UFL1 / Fold change vs veh, UFL1 / RFU, COG3 / Fold change vs veh, COG3 / RFU, DIAPH2 / Fold change vs veh, DIAPH2 / RFU, SKA2 / Fold change vs veh, SKA2 / RFU, AFF3 / Fold change vs veh, AFF3 / RFU, LMF1 / Fold change vs veh, LMF1 / RFU, IPO11 / Fold change vs veh, IPO11 / RFU, DFFB / Fold change vs veh, DFFB / RFU, FOXP1 / Fold change vs veh, FOXP1 / RFU, CARD8 / Fold change vs veh, CARD8 / RFU, STRN3 / Fold change vs veh, STRN3 / RFU, ADK / Fold change vs veh, ADK / RFU, RASSF2 / Fold change vs veh, RASSF2 / RFU, WIPF1 / Fold change vs veh, WIPF1 / RFU, LARP1B / Fold change vs veh, LARP1B / RFU, RASA1 / Fold change vs veh, RASA1 / RFU, RB1 / Fold change vs veh, RB1 / RFU, PPFIA1 / Fold change vs veh, PPFIA1 / RFU, MAT2A / Fold change vs veh, MAT2A / RFU, CCT5 / Fold change vs veh, CCT5 / RFU, WDR92 / Fold change vs veh, WDR92 / RFU, CUX1 / Fold change vs veh, CUX1 / RFU, TTC7A / Fold change vs veh, TTC7A / RFU, TMEM135 / Fold change vs veh, TMEM135 / RFU, DEPTOR / Fold change vs veh, DEPTOR / RFU, CPM / Fold change vs veh, CPM / RFU, DNAJB6 / Fold change vs veh, DNAJB6 / RFU, CACNA2D3 / Fold change vs veh, CACNA2D3 / RFU, DTX4 / Fold change vs veh, DTX4 / RFU, TFCP2 / Fold change vs veh, TFCP2 / RFU, GMCL1 /// GMCL1P1 / Fold change vs veh, GMCL1 /// GMCL1P1 / RFU, AEBP2 / Fold change vs veh, AEBP2 / RFU, SNHG1 /// SNORD22 /// SNORD25 /// SNORD26 /// SNORD27 /// SNORD28 /// SNORD29 /// SNORD31 / Fold change vs veh, SNHG1 /// SNORD22 /// SNORD25 /// SNORD26 /// SNORD27 /// SNORD28 /// SNORD29 /// SNORD31 / Fold change (Aza/veh), C12orf56 (ProbeSet 11735607_a_at) / Fold change (ACY-1035/veh), C12orf56 (ProbeSet 11735607_a_at) / Fold change (Aza/veh), FGFR1OP (ProbeSet 11751329_s_at) / Fold change (ACY-1035/veh), FGFR1OP (ProbeSet 11751329_s_at) / Fold change (Aza/veh), VPS36 (ProbeSet 11739960_a_at) / Fold change (ACY-1035/veh), VPS36 (ProbeSet 11739960_a_at) / RFU SYPL1 (11715823_x_at) / Fold change /veh SYPL1 (11715823_x_at) / RFU IGFBP7 (11715501_s_at) / Fold change /veh IGFBP7 (11715501_s_at) / RFU REEP3 (11722064_at) / Fold change /veh REEP3 (11722064_at) / RFU IGLL1 (11728026_x_at) / Fold change /veh IGLL1 (11728026_x_at): dose or concentration left out as unconfirmed
Conditions: MV-4-11 cells, 48 hours

## Nc1ccc(-c2cccs2)cc1NC(=O)c1ccc2c(c1)cc(C1CC1)n2CCN1CCOCC1 [ACY-1035]
  RFU RCAN1 (11760418_a_at): 20.19 RFU
